Test results taken from patent publication US20110256241A1, “METHODS AND COMPOSITIONS FOR THE TREATMENT OF CANCER” (TRASLATIONAL CANCER DRUGS PHARMA, S.L., priority 2008, published 2011).

Assays:
Assay type in all cases: cell-based, human
[1] = tested on: DLD-1 cells; assay: Apoptosis detection by flow cytometry, Annexin V & IP; conditions: DLD-1, 7 hours treatment
Experimental: Cell death was analysed by flow cytometry using de Aposcreen Annexin V Apoptosis Kit (Southern Biotech) according to manufacturer procedures. Cells were seeded at 4×10^5 cells per well in six-well. Twenty-four hours later, cells were treated with the indicated compounds. Cells were rinsed twice in cold PBS and after removing it cells were resuspended in cold 1× binding buffer to a concentration from 1×10^6 to 1×10^7 cells/mL. 100 μl of these cells were collected in a flow cytometry tube and 10 μl of Annexin V were added. After gently vortexing, tubes were incubated for 15 minutes on ice, protected from light. Without washing, 380 μl of 1× binding buffer were added to each sample prior to 10 μl of propidium iodine. Cells were immediately analysed by flow cytometry.
The synergism observed in vitro was also analysed by flow cytometry using Annexin V & IP staining to distinguish between apoptosis and necrosis or late apoptosis. […] When DLD-1 cells are treated with TRAIL alone there is a 35% of apoptosis. In combination tumour cell death is amplified up to 50%. When DLD-1 are treated with RSM-932A (TCD-717) in combination with TRAIL there is a 55% increase in tumour cell death but mainly the necrotic or late apoptosis population because RSM-932A (TCD-717) has an effect that is faster than MN58. […]

[2] = tested on: DR5 (TNFRSF10B or TRAIL-R2) in SW620 cell line; assay: DR5 levels by quantitative PCR
Experimental: (§1) 1 μg of RNA was used to generate cDNA using High-Capacity cDNA Archive Kit (Applied Biosystems), and quantitative real-time PCR was carried out in triplicate using the ABI PRISM 7700 Sequence Detector (Applied Biosystems). GAPDH and 18S ribosomal mRNA were amplified as internal controls. Probes used for amplification were from Applied Biosystems as Taqman Gene Expression Assays (ASAH1: HS00602774—M1 Taqman Probe, ASAH2: HS00184096_M1 Taqman Probe and ASAH3: HS00370322_M1 Taqman Probe, DUT: HS00798995_S1 Taqman Probe, TYMS: HS00426591_M1 Taqman Probe, UPP1: HS00427695—M1 Taqman Probe, RRM2: HS00357247_G1 Taqman Probe). The 2-^ΔΔCt method was used (Livak K J., Methods. 2001; 25:402-8) to calculate the relative expression of each gene.
(§2) TRAIL is a member of the tumour necrosis factor (TNF) superfamily and can induce apoptosis by the extrinsic pathway associated via stimulation of death receptors DR4 (TNFRSF10A or TRAIL-R1) and DR5 (TNFRSF10B or TRAIL-R2). In order to determine the mechanism of the effectivity of the combined therapy of TRAIL and ChoK inhibitors, DR5 and DR4 levels were analysed by quantitative PCR in DLD-1 and SW620 cell lines after treatments with MN58b, TRAIL or their simultaneous combination.

[3] = tested on: DR5 (TNFRSF10B or TRAIL-R2) in DLD-1 cell line; assay: DR5 levels by quantitative PCR
Experimental: as §1, §2

[4] = tested on: H82 cells; assay: Cell proliferation assay (MTT)
Experimental: (§3) All cell lines used in this study were maintained under standard conditions of temperature (37° C.), humidity (95%), and carbon dioxide (5%). Human primary bronchial epithelial cells, NHBE (BEC) (Cambrex, CC-2541) were grown in BEGM (Bronchial Epithelial cell growth media) BulletKit (Cambrex, CC-3170). Human primary mammary epithelial cells, HMEC (Clonetics, CC-2551) were grown in MEBM medium supplemented with a bullet kit (Clonetics, CC-3150). Epithelial non-small lung cancer cells H460 and H1299, and small cell lung cancer cell lines H510 and H82 were maintained in RPMI supplemented with 10% Fetal Bovine Serum (FBS) (Life Technologies, Grand Island, N.Y.).
(§4) Cells were seeded on 96-well plates (BD, Falcon, Bioscience, San Jose, Calif., USA) at a density of 6000 cells/well, and incubated for 24 h under standard conditions. […] Absorbance is read at 595 nm in a VersaMax Microplate Reader (Molecular Devices, Sunnyvale, Calif., USA). For sensitization with acid ceramidase inhibitor, cells were pre-treated 4 hours with the correspondent IC50 for NOE before treatment with ChoK inhibitors. NOE (N-Oleoyl ethanolamine) was obtained from Calbiochem (La Jolla, Calif., USA).

[5] = tested on: H510 cells; assay: Cell proliferation assay (MTT)
Experimental: as §3, §4

[6] = tested on: primary cultures of tumours of patients with NSCLC; assay: Primary cultures of NSCLC tumours, crystal violet quantification; conditions: primary NSCLC tumour cultures, 0-20 μM, 10 days
Experimental: Resected tissues from NSCLC patients were dissociated (Cell dissociation sieve-tissued grinder Kit CD1, SIGMA), and the obtained cells were seeded in 24 well plates (BD, Falcon, Bioscience, San Jose, Calif., USA). […] The final persistent population in each well was quantified by the method of Cristal Violet as previously described (Rodríguez-González, A. et al., Oncogene, 22:8803-8812). […]

CN(C)c1cc[n+](Cc2ccc(CCCCc3ccc(C[n+]4ccc(N(C)C)cc4)cc3)cc2)cc1 [MN58b, 1,4-(4-4′-Bis-((4-(dimethylamine)pyridinium-1-yl)methyl)diphenyl)butane dibromide]
apoptosis [1]: only a little increase in apoptosis
increase in DR5 levels [2]: 2 fold
increase in DR5 levels [3]: 1.6 fold
figure in parentheses after IC50 48 h (not defined; fold vs primary cells) [4]: 24
figure in parentheses after IC50 72 h (not defined; fold vs primary cells) [4]: 27
figure in parentheses after IC50 144 h (not defined; fold vs primary cells) [4]: 12
figure in parentheses after IC50 48 h (not defined; fold vs primary cells) [5]: 41
figure in parentheses after IC50 72 h (not defined; fold vs primary cells) [5]: 53
figure in parentheses after IC50 144 h (not defined; fold vs primary cells) [5]: 27
RESISTANT (number of samples) [6]: 28
SENSITIVES (number of samples) [6]: 35
